Read-outs that look alike come from different tables or passages of the source.
How the values were obtained:
Experimental pleurisy = Experimental pleurisy in the rat (terebenthine essence); format: in vivo, Wistar rats; conditions: 6 hours
Protocol: The injection of terebenthine essence (0.1 ml) into the bottom of the diaphragmatic sack of the rat causes in the hours which follow a vascular parietal reaction which leads to the formation of an inflammatory type pleurisy.
The average volume of the pleural exudate (taken up after opening the thoracic cage of the previously sacrificed animals) increases gradually in control animals to reach 6 to 7 ml towards the sixth hour, this volume remaining constant to the forty-eighth hour. The exudate is accompanied by the diapedesis of the formed elements of the blood and by the increase in the mobile cells of the conjunctive tissue. Five days after the injection of the irritant agent, the cellular phase gives place to a tissular reaction which leads to the building of dense granulation tissue and to the production of adhesions between the lungs and the thoracic wall.
The action of an anti-inflammatory substance is manifested by a reduction in the volume of the pleural exudate measured for example 6 hours after the injection of the irritant agent and by a reduction in the intensity of the later tissular reaction.
Experiments in Wistar rats of 200 g divided into batches in the following manner were carried out:
1 control batch of 15 animals
batch of 60 animals (batch 3) also divided into subgroups, each of them comprising 20 animals which have been treated with the doses indicated in Table V
6 batches of 15 animals, respectively treated with anti-inflammatory substances for comparison identified above.
The substances to be tested were administered by mouth 30 minutes before the injection of the irritant substance. The doses of these known anti-inflammatories correspond to their normal experimental doses. The results indicated in the Table V correspond to the reductions expressed as % of the average volumes of pleural exudate taken up 6 hours after the irritant injection and observed in the treated animals relative to the average volumes measured in the controls.

Solubility = format: physicochemical
[1] = tested on: Arthritis by Freund adjuvant; assay: Arthritis by Freund adjuvant; format: in vivo, rat; conditions: 50 mg/kg per day
Protocol: The injection of 0.5 ml of Freund adjuvant (product sold by the Difco Company) into the plantar pad of the rear foot of a rat of 90 days, causes a chronic polyarthritis.
This injection causes an inflammation first localised in the injected foot, then generalised. The blocking of the articulations appears between the 10th and the 20th days.
In a series of rats thus treated there are selected, 10 days after the injection of the Freund adjuvant, 50 rats having complete blockage of the articulations.

[2] = tested on: transmission of painful stimuli; assay: Caroll and Lim test; format: in vivo, rat; conditions: 50 mg/kg by mouth
Excerpt: This test (Arch. Int. Pharmacodyn., 1960, CXXV, 383-403) enables the study of the effect of analgesics on the transmission of painful stimuli, by means of electrodes placed on the tail of the rat and connected to a "stimulator" constituted by a source adapted to supply an alternating current of 60 Hz frequency at increasing voltages. The three voltages (thresholds S1, S2, S3) at which there are successively obtained:
Threshold S1 : characteristic retraction movement of the tail
Threshold S3 : a cry which continues after interrupting the stimulation.
The analgesic substances administered to a group of 15 rats have the effect of increasing the values of these thresholds. This is what have been observed with the substance according to the invention, administered by mouth at the dose of 50 mg/kg. The average increases, expressed as % with respect to the average corresponding thresholds observed in 15 animals of a control series, are indicated in Table VIII below.

mouse = assay: Acute oral toxicity / LD50 in the mouse; conditions: for Mortality: in vivo, po
Protocol: (§1) LD50 were determined in the mouse and the rat. The substance was administered to the animals by the oral route in a single dose. The behaviour of the animals was observed during the six days which followed. The statistical calculations were done by the method of Miller L. C. Tainter M. L. (Proc. Soc. Exp. Biol. Med., 1944 57 261/264/264).

[3] = Acute oral toxicity / LD50 in the mouse; conditions: in vivo, po
Protocol: as §1

rat = assay: in vivo
Protocol: as §1

in vivo = conditions: rat, in vivo, po
Protocol: as §1

all the animals = assay: AD50 (active dose 50) and therapeutic index as shown by the above-mentioned tests; format: in vivo; conditions: for ED50: read-out: AD50 (active dose 50)
[4] = comparison batch, 25 mg/kg by mouth
[5] = relative to the values of the invention's substance
[6] = comparison batch, 50 mg/kg by mouth

CCCCC1C(=O)NN(c2ccnc3cc(Cl)ccc23)C1=O (stereo not drawn) [1-(7'-chloro 4'-quinolinyl) 3,5-dioxo 4-n-butyl pyrazolidine]
Reduction of average volume of pleural exudate (Experimental pleurisy; Batch No. 1, 12.5 mg/kg by mouth): -24%
Reduction of average volume of pleural exudate (Experimental pleurisy; Batch No. 1, 25 mg/kg by mouth): -35%
Reduction of average volume of pleural exudate (Experimental pleurisy; Batch No. 1, 50 mg/kg by mouth): -45%
Reduction of average volume of pleural exudate (Experimental pleurisy; Batch No. 2, 12.5 mg/kg by mouth): -23%
Reduction of average volume of pleural exudate (Experimental pleurisy; Batch No. 2, 25 mg/kg by mouth): -38%
Reduction of average volume of pleural exudate (Experimental pleurisy; Batch No. 2, 50 mg/kg by mouth): -55%
Reduction of average volume of pleural exudate (Experimental pleurisy; Batch No. 3, 12.5 mg/kg by mouth): -18%
Reduction of average volume of pleural exudate (Experimental pleurisy; Batch No. 3, 25 mg/kg by mouth): -28%
Reduction of average volume of pleural exudate (Experimental pleurisy; Batch No. 3, 50 mg/kg by mouth): -45%
solubility in alcohol (Solubility; alcohol): soluble
solubility in solutions of potassium or of sodium carbonate (Solubility; solutions of potassium or of sodium carbonate): soluble
solubility in water (Solubility; water): insoluble
Animals with at least partial deblocking of the articulations ([1]; after 5 days of treatment): at least 25%
Animals with at least partial deblocking of the articulations ([1]; after 10 days of treatment): ≥ 50%
Animals with at least partial deblocking of the articulations ([1]; after 15 days of treatment): ≥ 65%
Average increase of threshold S1 ([2]; 11/2 hour): 0
Average increase of threshold S1 ([2]; 30 minutes): 0
Average increase of threshold S1 ([2]; 1 hour): 0
Average increase of threshold S1 ([2]; 2 hours): 0
Mortality (mouse; 200 mg/kg): no death
Mortality (mouse; 500 mg/kg): no death
LD50 at 144 h [3]: ~2000 mg/kg
mortality at 144 h ([3]; 1000 mg/kg): 16%
mortality at 144 h ([3]; 2000 mg/kg): 50%
mortality at 144 h ([3]; 4000 mg/kg): 100%
Mortality (rat; in vivo, po, 200 mg/kg): no death
Mortality (rat; in vivo, po, 500 mg/kg): no death
Mortality (rat; oral single dose, 1 g/kg): no death
Mortality (rat; oral single dose, 2 g/kg): no death
LD50 at 144 h (in vivo): > 4000 mg/kg
mortality at 144 h (in vivo; 4000 mg/kg): 5%
ED50 (all the animals; in all the animals, determined under similar conditions): ~50 mg/kg
therapeutic index (all the animals; in vivo): notably higher than that of phenylbutazone

COc1ccc2c(c1)c(CC(=O)O)c(C)n2C(=O)c1ccc(Cl)cc1 [Indomethacine, reference compound]
Reduction of average volume of pleural exudate (Experimental pleurisy; comparison batch, 5 mg/kg by mouth): -33%

Cc1cccc(Nc2ccccc2C(=O)O)c1C [Ac. Mefenamic, Mefanamic acid, reference compound]
Reduction of average volume of pleural exudate (Experimental pleurisy; [4]): -30%

CCCCC1C(=O)N(c2ccccc2)N(c2ccccc2)C1=O [Phenylbutazone, reference compound]
Reduction of average volume of pleural exudate (Experimental pleurisy; comparison batch, 100 mg/kg by mouth): -49%
LD50 (in words) (mouse; [5]): much lower than the above-indicated values
LD50 (in words) (rat; [5]): much lower than the above-indicated values
ED50 (all the animals): ~100 mg/kg

O=C(O)c1ccccc1Nc1cccc(C(F)(F)F)c1 [Ac. flufenamic, Flufenamic acid, reference compound]
Reduction of average volume of pleural exudate (Experimental pleurisy; [4]): -32%

Clofezone [reference compound]
Reduction of average volume of pleural exudate (Experimental pleurisy; [6]): -37%

O=C(O)c1cccnc1Nc1cccc(C(F)(F)F)c1 [Ac. niflumic, Niflumic acid, reference compound]
Reduction of average volume of pleural exudate (Experimental pleurisy; [6]): -30%

Source: patent US3996231A, “1-Quinolinyl-pyrazolidine derivatives” (Choay S.A., priority 1973, dated 1976)
